Experimental data from BindingDB's records for doi:10.3109/14756361003698147 (Shandong University, 2012).
Where a name gives a salt, the structure may show the parent alone.

Columns and labels:
[1] = biological target: T1, Aminopeptidase N (Sus scrofa, UniProt P15145); test: In Vitro APN Inhibition Assay
T1 sequence (P15145 whole entry): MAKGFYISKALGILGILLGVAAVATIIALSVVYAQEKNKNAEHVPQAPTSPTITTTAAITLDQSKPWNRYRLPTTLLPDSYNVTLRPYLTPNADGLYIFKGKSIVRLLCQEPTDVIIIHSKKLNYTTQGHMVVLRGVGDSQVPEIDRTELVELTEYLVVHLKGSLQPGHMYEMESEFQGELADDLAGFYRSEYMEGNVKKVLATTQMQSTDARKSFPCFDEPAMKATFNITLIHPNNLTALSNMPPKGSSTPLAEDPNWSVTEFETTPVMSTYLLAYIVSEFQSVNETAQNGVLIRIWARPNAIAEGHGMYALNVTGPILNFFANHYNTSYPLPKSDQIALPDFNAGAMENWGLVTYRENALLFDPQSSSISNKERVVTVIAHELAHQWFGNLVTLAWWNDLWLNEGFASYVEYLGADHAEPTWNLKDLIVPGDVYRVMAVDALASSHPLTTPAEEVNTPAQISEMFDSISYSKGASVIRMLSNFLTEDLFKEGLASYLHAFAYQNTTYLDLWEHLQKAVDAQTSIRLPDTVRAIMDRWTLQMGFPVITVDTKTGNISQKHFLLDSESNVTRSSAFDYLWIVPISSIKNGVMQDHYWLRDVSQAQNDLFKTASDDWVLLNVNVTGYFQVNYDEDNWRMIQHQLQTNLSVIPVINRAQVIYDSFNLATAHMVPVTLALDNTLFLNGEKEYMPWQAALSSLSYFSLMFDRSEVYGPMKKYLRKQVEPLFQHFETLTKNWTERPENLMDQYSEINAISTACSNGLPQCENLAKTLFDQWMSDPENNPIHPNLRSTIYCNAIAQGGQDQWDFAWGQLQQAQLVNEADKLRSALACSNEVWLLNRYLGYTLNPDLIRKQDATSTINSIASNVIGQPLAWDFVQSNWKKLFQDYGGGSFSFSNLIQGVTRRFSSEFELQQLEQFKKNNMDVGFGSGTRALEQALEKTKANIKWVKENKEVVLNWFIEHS
Method: Allcompounds were pre-incubated with APN on a 96-well plate for 30 min. […] Fifteen minutes later, the absorbance (OD405) of the wells was recorded on a microplate reader.

[2] = biological target: 72 kDa type IV collagenase (Homo sapiens, UniProt P08253); test: In Vitro MMP-2 Inhibition Assay; settings: pH 8.5; 25 °C
Chain of 72 kDa type IV collagenase (P08253 whole entry): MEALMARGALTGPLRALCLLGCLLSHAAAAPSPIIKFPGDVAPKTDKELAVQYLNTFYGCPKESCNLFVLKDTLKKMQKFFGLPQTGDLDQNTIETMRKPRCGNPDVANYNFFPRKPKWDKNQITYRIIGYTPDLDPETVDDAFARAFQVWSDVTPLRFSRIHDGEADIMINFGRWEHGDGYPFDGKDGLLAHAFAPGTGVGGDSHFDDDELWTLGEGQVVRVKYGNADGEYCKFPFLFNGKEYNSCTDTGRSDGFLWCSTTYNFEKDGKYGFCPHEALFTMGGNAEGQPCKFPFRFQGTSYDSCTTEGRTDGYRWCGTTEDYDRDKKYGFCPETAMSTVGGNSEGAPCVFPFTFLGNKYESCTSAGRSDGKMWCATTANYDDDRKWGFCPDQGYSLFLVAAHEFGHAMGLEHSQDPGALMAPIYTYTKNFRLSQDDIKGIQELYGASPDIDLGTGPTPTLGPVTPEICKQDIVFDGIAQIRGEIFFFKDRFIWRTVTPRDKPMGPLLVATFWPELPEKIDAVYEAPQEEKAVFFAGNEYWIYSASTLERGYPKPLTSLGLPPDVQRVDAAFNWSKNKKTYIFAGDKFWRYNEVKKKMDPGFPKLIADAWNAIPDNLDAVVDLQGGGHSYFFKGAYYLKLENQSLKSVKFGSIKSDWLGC

| IC50 [1] | IC50 [2] | SMILES |
| --- | --- | --- |
| 195 µM | 1000 µM | CC(C)C[C@H](NC(=O)[C@@H](O)CN)C(=O)OCc1ccccc1 [L-Isoseryl-L-leucine benzyl ester hydrochloride (11d)] |
| 199 µM | 364 µM | CC(C)C[C@H](NC(=O)[C@@H](O)CN)C(=O)O |
| 20.9 µM | 115 µM | CC(C)C[C@H](NC(=O)[C@@H](O)CN)C(=O)N[C@@H](Cc1ccccc1)C(=O)O [L-Isoseryl-L-leucyl-L-phenylalanine hydrochloride (14a)] |
| 32.2 µM | 334 µM | CC(C)C[C@H](NC(=O)[C@H](Cc1ccccc1)NC(=O)[C@@H](O)CN)C(=O)OCc1ccccc1 [L-Isoseryl-L-phenylalanyl-L-leucine benzyl ester hydrochloride (13d)] |
| 302 µM | > 1000 µM | COC(=O)[C@H](Cc1ccccc1)NC(=O)[C@@H](O)CN [Methyl (2S)-2-[(2S)-3-amino-2-hydroxypropanamido]-3-phenylpropanoate (11a)] |
| 140 µM | 126 µM | COC(=O)[C@H](Cc1ccccc1)NC(=O)[C@H](CC(C)C)NC(=O)[C@@H](O)CN [L-Isoseryl-L-leucyl-L-phenylalanine methyl ester hydrochloride (13a)] |
| 12.2 µM | 203 µM | CC(C)C[C@H](NC(=O)[C@H](Cc1ccccc1)NC(=O)[C@@H](O)CN)C(=O)O [L-Isoseryl-L-phenylalanyl-L-leucine hydrochloride (14b)] |
| 99.5 µM | 329 µM | NC[C@H](O)C(=O)N[C@@H](Cc1ccccc1)C(=O)OCc1ccccc1 [L-Isoseryl-L- phenylalanine benzyl ester hydrochloride (11c)] |
| 229 µM | 682 µM | COC(=O)[C@H](CC(C)C)NC(=O)[C@@H](O)CN [L-Isoseryl-L-leucine methyl ester hydrochloride (11b)] |
| 249 µM | 710 µM | NC[C@H](O)C(=O)N[C@@H](Cc1ccccc1)C(=O)O [(2S)-2-[(2S)-3-amino-2-hydroxypropanamido]-3-phenylpropanoic acid (12a)] |
|  | 167 µM | CC(C)C[C@H](NC(=O)[C@@H](O)[C@H](N)Cc1ccccc1)C(=O)O |
